Measurements taken from US9113629B2, “4-amino-6-(4-substituted-phenyl)-picolinates and 6-amino-2-(4-substituted-phenyl)-pyrimidine-4-carboxylates and their use as herbicides” (DOW AGROSCIENCES LLC, priority 2013, dated 2015).
Read-outs that look alike come from different tables or passages of the source.

Assays:
[1] = tested on: VIOSS: wild pansy (Viola tricolor), field violet (Viola arvensis); test: Post-emergent Test III, herbicidal activity in wheat and barley; format: in vivo; details: Table 8, 21 d; for GR50 VIOSS: dose for 50 percent growth reduction; for GR50 VIOSS / GR80 VIOSS: probit analysis; for GR80 VIOSS: dose for 80 percent growth reduction; for pest or weed control at 35 g/ha / pest or weed control at 70 g/ha: Viola tricolor, post-emergence, 504 h, post-emergent, read-out: Visual Growth Reduction (%) 21 Days After Application VIOSS; for pest or weed control at 35 g/ha: 35 g ai/ha; for pest or weed control at 70 g/ha: 70 g ai/ha
Method in brief: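 Plants at the second to third true-leaf stage, grown in a greenhouse at about 18/17 °C with a 14 h photoperiod, were sprayed post-emergence at 187 L/ha with the high rate and ½× to 1/16× serial dilutions in an acetone/DMSO/crop-oil/surfactant carrier. Injury was rated visually at 21 d on a 0–100% scale, and GR20–GR90 were derived by probit analysis.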

[2] = tested on: test plant species in Direct Seeded Rice; test: Postemergence herbicidal activity in direct seeded rice (Table 13); format: in vivo; details: for GR50 BRAPP / GR80 BRAPP / GR50 CYPSS / GR80 CYPSS / GR50 ECHSS / GR80 ECHSS / GR50 LEFSS / GR80 LEFSS / GR20 ORYSS / GR50 SCPJU / GR80 SCPJU / GR50 SEBEX / GR80 SEBEX: probit analysis; for GR20 ORYSS: ORYSS: Oryza sativa (crop); for pest or weed control at 35 g/ha / pest or weed control at 70 g/ha: post-emergence, 504 h
Excerpt: Seeds or nutlets of the desired test plant species were planted in a soil matrix prepared by mixing a loam soil (43 percent silt, 19 percent clay, and 38 percent sand, with a pH of about 8.1 and an organic matter content of about 1.5 percent) and river sand in an 80 to 20 ratio. The soil matrix was contained in plastic pots with a surface area of 139.7 cm^2. When required to ensure good germination and healthy plants, a fungicide treatment and/or other chemical or physical treatment was applied. The plants were grown for 10-17 d in a greenhouse with an approximate 14-h photoperiod which was maintained at about 29° C. during the day and 26° C. during the night. Nutrients and water were added on a regular basis and supplemental lighting was provided with overhead metal halide 1000-Watt lamps as necessary. The plants were employed for testing when they reached the second or third true leaf stage. A weighed amount, determined by the highest rate to be tested, of each test compound was placed in 25 mL glass vials and dissolved in a volume of 97:3 v/v acetone-DMSO to obtain 12× stock solutions. […] The concentrated stock solutions were added to the spray solutions so that the final acetone and DMSO concentrations were 16.2% and 0.5%, respectively. Spray solutions were diluted to the appropriate final concentrations with the addition of 10 mL of an aqueous mixture of 1.5% (v/v) Agri-dex crop oil concentrate. […] Compound requirements are based upon a 12 mL application volume at a rate of 187 L/ha. Formulated compounds were applied to the plant material with an overhead Mandel track sprayer equipped with […] nozzles calibrated to deliver 187 L/ha over an application area of 0.503 square meters (m^2) at a spray height of 18 inches (43 cm) above average plant canopy height. Control plants were sprayed in the same manner with the solvent blank. The treated plants and control plants were placed in a greenhouse as described above and watered by sub-irrigation to prevent wash-off of the test compounds. After 20-22 days, the condition of the test plants, compared with that of the untreated plants, was determined visually and scored on a scale of 0 to 100 percent where 0 corresponds to no injury and 100 corresponds to complete kill. By applying the well-accepted probit analysis as described by J. Berkson in Journal of the American Statistical Society, 48, 565 (1953) and by D. Finney in “Probit Analysis” Cambridge University Press (1952), the above data can be used to calculate GR20, GR50, GR80 and GR90 values, which are defined as growth reduction factors that correspond to the effective dose of herbicide required to kill or control 20 percent, 50 percent, 80 percent or 90 percent, respectively, of a target plant.

[3] = BRAPP: broadleaf signalgrass, Brachiaria platyphylla
[4] = CYPSS: sedge (Cyperus difformis, esculentus, iria)
[5] = ECHSS: barnyardgrass (Echinochloa crus-galli), junglerice (Echinochloa colonum)
[6] = LEFSS: sprangletop (Leptochloa chinensis, Leptochloa dubia)
[7] = SCPJU: Japanese bulrush, Scirpus juncoides
[8] = SEBEX: hemp sesbania, Sesbania exaltata
[9] = BRAPP: broadleaf signalgrass, Brachiaria platyphylla, 35 g ai/ha, read-out: Visual Growth Reduction (%) 21 Days After Application BRAPP
[10] = BRAPP: broadleaf signalgrass, Brachiaria platyphylla, 70 g ai/ha, read-out: Visual Growth Reduction (%) 21 Days After Application BRAPP
[11] = CYPSS: sedge (Cyperus difformis, esculentus, iria), 35 g ai/ha, read-out: Visual Growth Reduction (%) 21 Days After Application CYPSS
[12] = CYPSS: sedge (Cyperus difformis, esculentus, iria), 70 g ai/ha, read-out: Visual Growth Reduction (%) 21 Days After Application CYPSS
[13] = ECHSS: barnyardgrass (Echinochloa crus-galli), junglerice (Echinochloa colonum), 35 g ai/ha, read-out: Visual Growth Reduction (%) 21 Days After Application ECHSS
[14] = ECHSS: barnyardgrass (Echinochloa crus-galli), junglerice (Echinochloa colonum), 70 g ai/ha, read-out: Visual Growth Reduction (%) 21 Days After Application ECHSS
[15] = LEFSS: sprangletop (Leptochloa chinensis, Leptochloa dubia), 35 g ai/ha, read-out: Visual Growth Reduction (%) 21 Days After Application LEFSS
[16] = LEFSS: sprangletop (Leptochloa chinensis, Leptochloa dubia), 70 g ai/ha, read-out: Visual Growth Reduction (%) 21 Days After Application LEFSS
[17] = ORYSS: Oryza sativa, 35 g ai/ha, read-out: Visual Growth Reduction (%) 21 Days After Application ORYSS
[18] = ORYSS: Oryza sativa, 70 g ai/ha, read-out: Visual Growth Reduction (%) 21 Days After Application ORYSS
[19] = SCPJU: Japanese bulrush, Scirpus juncoides, 35 g ai/ha, read-out: Visual Growth Reduction (%) 21 Days After Application SCPJU
[20] = SCPJU: Japanese bulrush, Scirpus juncoides, 70 g ai/ha, read-out: Visual Growth Reduction (%) 21 Days After Application SCPJU
[21] = SEBEX: hemp sesbania, Sesbania exaltata, 35 g ai/ha, read-out: Visual Growth Reduction (%) 21 Days After Application SEBEX
[22] = SEBEX: hemp sesbania, Sesbania exaltata, 70 g ai/ha, read-out: Visual Growth Reduction (%) 21 Days After Application SEBEX

Compound | GR50 BRAPP [2, 3] [g ai/ha] | GR80 BRAPP [2, 3] [g ai/ha] | GR50 CYPSS [2, 4] [g ai/ha] | GR80 CYPSS [2, 4] [g ai/ha] | GR50 ECHSS [2, 5] [g ai/ha] | GR80 ECHSS [2, 5] [g ai/ha] | GR50 LEFSS [2, 6] [g ai/ha] | GR80 LEFSS [2, 6] [g ai/ha] | GR20 ORYSS [2] [g ai/ha] | GR50 SCPJU [2, 7] [g ai/ha] | GR80 SCPJU [2, 7] [g ai/ha] | GR50 SEBEX [2, 8] [g ai/ha] | GR80 SEBEX [2, 8] [g ai/ha] | pest or weed control at 35 g/ha [2, 9] [%] | pest or weed control at 70 g/ha [2, 10] [%] | pest or weed control at 35 g/ha [2, 11] [%] | pest or weed control at 70 g/ha [2, 12] [%] | pest or weed control at 35 g/ha [2, 13] [%] | pest or weed control at 70 g/ha [2, 14] [%] | pest or weed control at 35 g/ha [2, 15] [%] | also measured
COc1c(N)nc(-c2ccc(I)c(F)c2)nc1C(=O)O [Compound 37, 6-Amino-2-(3-fluoro-4-iodophenyl)-5-methoxypyrimidine-4-carboxylic acid] | – | – | – | – | – | – | – | – | – | – | – | – | – | – | – | – | – | – | – | – | GR50 VIOSS [1]: 12 g ai/ha; GR80 VIOSS [1]: 35 g ai/ha; pest or weed control at 35 g/ha [1]: 75 to 84%; pest or weed control at 70 g/ha [1]: 85 to 94%
COC(=O)c1nc(-c2ccc(Br)c(F)c2)nc(N)c1OC [Compound 171, Methyl 6-amino-2-(4-bromo-3-fluorophenyl)-5-methoxypyrimidine-4-carboxylate] | – | – | – | – | – | – | – | – | – | – | – | – | – | – | – | – | – | – | – | – | GR50 VIOSS [1]: 5 g ai/ha; GR80 VIOSS [1]: 10 g ai/ha; pest or weed control at 35 g/ha [1]: 95 to 100%; pest or weed control at 70 g/ha [1]: 95 to 100%
COC(=O)c1nc(-c2ccc(Br)cc2F)cc(N)c1Cl [Compound 93] | 1 | 1 | 1 | 2 | 1 | 1 | 6 | 11 | 13 | 1 | 1 | 1 | 1 | 95 to 100 | 95 to 100 | 95 to 100 | 95 to 100 | 95 to 100 | 95 to 100 | 95 to 100 | pest or weed control at 70 g/ha [2, 16]: 95 to 100%; pest or weed control at 35 g/ha [2, 17]: 45 to 59%; pest or weed control at 70 g/ha [2, 18]: 60 to 74%; pest or weed control at 35 g/ha [2, 19]: 95 to 100%; pest or weed control at 70 g/ha [2, 20]: 95 to 100%; pest or weed control at 35 g/ha [2, 21]: 95 to 100%; pest or weed control at 70 g/ha [2, 22]: 95 to 100%
COC(=O)c1nc(-c2ccc(C(F)(F)F)c(F)c2)c(Cl)c(N)c1Cl [Compound 58] | >70 | >70 | 4 | 8 | >70 | >70 | >70 | >70 | >70 | 5 | 8 | 2 | 4 | – | – | – | – | – | – | – | Visual Growth Reduction (%) 21 Days After Application BRAPP ([2]; BRAPP: broadleaf signalgrass, Brachiaria platyphylla, 35 g ai/ha): G (0-29); Visual Growth Reduction (%) 21 Days After Application BRAPP ([2]; BRAPP: broadleaf signalgrass, Brachiaria platyphylla, 70 g ai/ha): G (0-29); Visual Growth Reduction (%) 21 Days After Application CYPSS ([2]; CYPSS: sedge (Cyperus difformis, esculentus, iria), 35 g ai/ha): A (95-100); Visual Growth Reduction (%) 21 Days After Application CYPSS ([2]; CYPSS: sedge (Cyperus difformis, esculentus, iria), 70 g ai/ha): A (95-100); Visual Growth Reduction (%) 21 Days After Application ECHSS ([2]; ECHSS: barnyardgrass (Echinochloa crus-galli), junglerice (Echinochloa colonum), 35 g ai/ha): G (0-29); Visual Growth Reduction (%) 21 Days After Application ECHSS ([2]; ECHSS: barnyardgrass (Echinochloa crus-galli), junglerice (Echinochloa colonum), 70 g ai/ha): G (0-29); Visual Growth Reduction (%) 21 Days After Application LEFSS ([2]; LEFSS: sprangletop (Leptochloa chinensis, Leptochloa dubia), 35 g ai/ha): G (0-29); Visual Growth Reduction (%) 21 Days After Application LEFSS ([2]; LEFSS: sprangletop (Leptochloa chinensis, Leptochloa dubia), 70 g ai/ha): E (45-59); Visual Growth Reduction (%) 21 Days After Application ORYSS ([2]; ORYSS: Oryza sativa, 35 g ai/ha): G (0-29); Visual Growth Reduction (%) 21 Days After Application ORYSS ([2]; ORYSS: Oryza sativa, 70 g ai/ha): G (0-29); Visual Growth Reduction (%) 21 Days After Application SCPJU ([2]; SCPJU: Japanese bulrush, Scirpus juncoides, 35 g ai/ha): A (95-100); Visual Growth Reduction (%) 21 Days After Application SCPJU ([2]; SCPJU: Japanese bulrush, Scirpus juncoides, 70 g ai/ha): A (95-100); Visual Growth Reduction (%) 21 Days After Application SEBEX ([2]; SEBEX: hemp sesbania, Sesbania exaltata, 35 g ai/ha): A (95-100); Visual Growth Reduction (%) 21 Days After Application SEBEX ([2]; SEBEX: hemp sesbania, Sesbania exaltata, 70 g ai/ha): A (95-100)
COC(=O)c1nc(-c2ccc(Br)cc2)c(Cl)c(N)c1Cl [Compound 47] | >70 | >70 | 1 | 3 | >70 | >70 | >70 | >70 | >70 | 1 | 1 | 1 | 1 | 30 to 44 | 30 to 44 | 95 to 100 | 95 to 100 | 30 to 44 | 0 to 29 | 75 to 84 | pest or weed control at 70 g/ha [2, 16]: 0 to 29%; pest or weed control at 35 g/ha [2, 17]: 0 to 29%; pest or weed control at 70 g/ha [2, 18]: 0 to 29%; pest or weed control at 35 g/ha [2, 19]: 95 to 100%; pest or weed control at 70 g/ha [2, 20]: 95 to 100%; pest or weed control at 35 g/ha [2, 21]: 95 to 100%; pest or weed control at 70 g/ha [2, 22]: 95 to 100%
COc1c(N)nc(-c2cc(F)c(Br)cc2F)nc1C(=O)O [Compound 11] | 13 | 44 | 1 | 1 | 11 | 25 | 175 | 463 | 25 | 1 | 1 | 3 | 7 | 60 to 74 | 85 to 94 | 95 to 100 | 95 to 100 | 85 to 94 | 95 to 100 | 0 to 29 | pest or weed control at 70 g/ha [2, 16]: 0 to 29%; pest or weed control at 35 g/ha [2, 17]: 30 to 44%; pest or weed control at 70 g/ha [2, 18]: 45 to 59%; pest or weed control at 35 g/ha [2, 19]: 95 to 100%; pest or weed control at 70 g/ha [2, 20]: 95 to 100%; pest or weed control at 35 g/ha [2, 21]: 95 to 100%; pest or weed control at 70 g/ha [2, 22]: 95 to 100%
